Among the data in ChEMBL document CHEMBL4400514, “Medicinal chemistry of metal chelating fragments in metalloenzyme active sites: A perspective” (Eur J Med Chem, 2019) are inhibition and IC50 values, retold here.

The structures appear in SMILES notation. pIC50: −log10 of the molar value.

The first assay has as its target T1, Deoxyhypusine hydroxylase (Plasmodium falciparum (isolate 3D7)) (UniProt Q8I701).
T1 sequence (whole entry): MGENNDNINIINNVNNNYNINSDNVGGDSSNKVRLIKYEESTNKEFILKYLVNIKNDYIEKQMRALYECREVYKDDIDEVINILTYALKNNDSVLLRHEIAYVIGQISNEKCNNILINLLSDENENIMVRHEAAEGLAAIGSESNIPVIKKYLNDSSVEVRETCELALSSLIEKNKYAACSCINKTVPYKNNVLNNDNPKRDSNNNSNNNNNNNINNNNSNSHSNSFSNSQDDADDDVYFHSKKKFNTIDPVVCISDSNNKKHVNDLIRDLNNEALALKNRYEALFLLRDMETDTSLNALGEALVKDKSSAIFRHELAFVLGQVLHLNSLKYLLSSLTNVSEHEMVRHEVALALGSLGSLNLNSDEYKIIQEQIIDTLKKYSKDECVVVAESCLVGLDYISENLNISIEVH
Briefly: Inhibition of Plasmodium falciparum DOHH expressed in Escherichia coli BL21 cells at 1 mM after 24 hrs by GC/MS analysis relative to control.
Turning to `CCOc1ccc(-c2nonc2NC(=O)c2cccc(C)c2)cc1OCC`, the inhibition came out at 43.3%.
Same read-out and setting: the figure for `COc1ccc(-c2nc3cc(Cc4ccc5[nH]c(-c6ccc(OC)cc6)nc5c4)ccc3[nH]2)cc1` is 38.8%.
On the same count and under the same terms, the figure for `c1ccc(Cn2c(/N=N/c3c(Nc4ccccc4)ccc4ccccc34)nc3ccccc32)cc1` is 35.9%.

For the next assay, the target named is T2, Deoxyhypusine hydroxylase (Homo sapiens, UniProt Q9BU89).
T2 sequence (Q9BU89 whole entry): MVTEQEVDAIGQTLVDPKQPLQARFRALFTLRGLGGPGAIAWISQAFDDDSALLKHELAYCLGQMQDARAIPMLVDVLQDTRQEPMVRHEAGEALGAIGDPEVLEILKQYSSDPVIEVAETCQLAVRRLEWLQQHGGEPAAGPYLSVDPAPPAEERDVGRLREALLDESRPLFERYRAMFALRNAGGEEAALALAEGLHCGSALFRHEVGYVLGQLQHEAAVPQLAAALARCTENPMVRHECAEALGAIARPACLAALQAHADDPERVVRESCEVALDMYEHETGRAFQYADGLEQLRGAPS
Briefly: Inhibition of DOHH (unknown origin).
As to `Cc1cc(C2CCCCC2)n(O)c(=O)c1` [CICLOPIROX], the negative logarithm of the IC50 (pIC50) was 3.70 to 5.30.
The same measure, in the same setting: the figure for `Cc1c(O)c(=O)ccn1C` [DEFERIPRONE] is 3.70 to 5.30.
On the same count and under the same terms, the figure for `CC(=O)N(O)CCCCCNC(=O)CCC(=O)N(O)CCCCCNC(=O)CCC(=O)N(O)CCCCCN` [DEFEROXAMINE] is 3.70 to 5.30.
On the same count and under the same terms, the figure for `c1ccc(-c2ccccn2)nc1` [DIPYRIDYL] is 3.70 to 5.30.
For `N[C@@H](Cn1ccc(=O)c(O)c1)C(=O)O` [L-MIMOSINE], the pIC50 was 3.70 to 5.30.

By inhibition is commonly meant the change of the read-out against control, counted positive when it falls. Usually pIC50 stands for the IC50 on a negative log10 scale, so that one unit is a factor of ten.
